# According to patent US20230241071A1, “COMBINATION TREATMENT OF LIVER DISORDERS” (Terns Pharmaceuticals, Inc., priority 2021, published 2023):
# “And” between values parts separate entries of the source, which are not always exact repeats. Equal entries are not always repeated. “Also recorded” adds a separate entry of the source.
# Key:
# [1] = Trough plasma compound levels in DIO-GAN mice; assay type: in vivo, mouse; details: plasma 21-24 h post final dose
# Experimental: Terminal plasma samples were harvested by cardiac puncture approximately 21-24 hours after the last administration of compound(s). Terminal plasma samples were analyzed by high resolution LC-MS/MS using a Triple Quad 6500+ instrument. 20 μL of plasma sample was mixed with 200 μL of internal standard solution (100 ng/mL Labetalol+100 ng/mL Tolbutamide in acetonitrile), vortexed, and centrifuged at 4,000 rpm for 15 min at 4° C. […] The internal standard 1 (retention time: 0.87 min) and standard 2 (retention time: 0.96 min) were used for quantification of Compound 3 (retention time: 0.87 min) and Compound 2 (retention time: 0.97 min), respectively. The internal standard (retention time: 0.76 min), was used for quantification of the glucuronide metabolite of Compound 3 (retention time: 0.77 min). Calibration curves (1-3000 ng/mL) were generated in a matrix of mouse plasma (pooled vehicle control) for each analyte.
# DIO-GAN NASH mouse model = assay: Biopsy-confirmed DIO-GAN NASH mice, 12 weeks mono- and combination treatment; assay type: in vivo; details: for Histological steatosis score: mice improving 1-pt / Histological steatosis score: mice with no change / Liver fibrosis stage: mice improving / Liver fibrosis stage: mice with no change / Liver fibrosis stage: mice worsening / Lobular inflammation: mice improving / Lobular inflammation: mice with no change / Lobular inflammation: mice worsening / NAS: mice improving 1-pt / NAS: mice with no change / NAS: mice worsening ≥1-pt / Histological steatosis score: mice improving >2-pt / Histological steatosis score: mice improving, Total (at least 1-pt) / NAS: mice improving ≥2-pt / NAS: mice improving, Total (≥1-pt): alone or (Combo) + Compound 3 10 mg/kg
# Text: C57BL/6JRj male mice (n=138) were fed the Gubra Amylin NASH (GAN) diet (40% fat, 22% fructose, 2% cholesterol [D09100310, Research Diets]) or lean chow diet for 35 weeks before treatment start. Prior to treatment all animals underwent liver biopsy for histological confirmation (steatosis score ≥2 and fibrosis stage ≥1) and stratification using the nonalcoholic fatty liver disease (NAFLD) activity scoring (NAS) and fibrosis staging system. The diet-induced obese mice on GAN diet (DIO-GAN) were randomized to 8 treatment groups […] based on percent-area of picrosirius red (PSR) staining. DIO-GAN mice (n=16 per group) received treatment (PO, QD) for 12 weeks with vehicle (0.5% HPMC+0.2% Tween-80 in Tris buffer [50 mM, pH 8]), Compound 3 (10 mg/kg), Compound 2 (0.3 mg/kg [low], 2 mg/kg [med], or 10 mg/kg [high]), or combination treatments of Compound 3 with Compound 2 (Combo-low, Combo-med or Combo-high). Vehicle-dosed lean chow-fed controls served as healthy controls (n=10). Mice were maintained on their respective diets (GAN or lean chow) for the duration of the study. Within-subject comparisons (pre- vs. post-treatment) were performed for liver biopsy histopathological scores. Terminal quantitative endpoints included plasma/liver biochemistry, liver histomorphometry, and liver transcriptomic analysis by RNAseq.
# Formalin-fixed paraffin-embedded (FFPE) liver biopsies were prepared by placing liver samples into 10% neutral buffered formalin for ˜24 hours and then transferred to 70% ethanol prior to storage at 4 C. FFPE were placed in the Histokinette to infiltrate prior to embedding in blocks. Biopsy tissues were then cut at 3 μm using a microtome and sections were mounted on slides. Liver sections were stained with Hematoxylin and Eosin (H&E) to assess steatosis, inflammation, and ballooning, and PSR to assess fibrosis. Additionally, slides were processed to detect type I collagen (Col1a1), galectin-3 (Gal-3), and smooth muscle actin (α-SMA) protein expression by immunohistochemistry (IHC). For H&E staining, slides were incubated in Mayer's Hematoxylin (Dako), washed with tap water, stained in Eosin Y solution (Sigma-Aldrich), dehydrated, and coverslipped. For PSR, slides were incubated in Weigert's iron hematoxylin (Sigma-Aldrich), washed in tap water, stained in Picro-sirius red (Sigma-Aldrich), and washed twice in acidified water. Excess water was removed by shaking the slides and the slides were then dehydrated with ethanol, cleared in xylene, and cover-slipped. The NAS and fibrosis stage were scored as described previously (Kleiner et al. 2005). NAS represents the unweighted sum of steatosis, inflammation, and ballooning scores and ranges for 0-8 (Table 26); fibrosis stage ranges from 0 (no fibrosis) to 4 (cirrhosis). For detection of Col1a1, Gal-3 and α-SMA, IHC was performed by standard procedures. Briefly, after antigen retrieval and blocking of endogenous peroxidase activity, slides were incubated with primary antibody (Col1a1: Southern Biotech, Cat. 1310-01; Gal-3: Biolegend, Cat. 125402; α-SMA: Abcam Cat. Ab124964). Primary antibody was detected using a polymeric HRP-linker antibody conjugate. Primary antibody was visualized with DAB as chromogen. Finally, sections were counterstained in hematoxylin and cover-slipped.
# Terminal blood was harvested by cardiac puncture from mice anesthetized with isoflurane (2-3%), mixed with anticoagulant, and placed at 4 C prior to centrifugation at 3000×g for 10 minutes. Plasma supernatants were transferred to new tubes and immediately frozen on dry ice and stored at −80 C. Alanine transaminase (ALT), Aspartate transaminase (AST), Alkaline phosphatase (ALP), Triglycerides (TGs), Total Cholesterol (TC), High-density lipoprotein (HDL-c), and Low-density lipoprotein (LDL-c) were measured using commercial kits (Roche Diagnostics) on the Cobas c 501 autoanalyzer according to manufacturer's instructions. […]
# [2] = 12 wk PO QD, vs DIO-GAN vehicle control
# [3] = 12 wk PO QD, high: Compound 2 10 mg/kg
# [4] = 12 wk PO QD, high: Compound 2 10 mg/kg, 10 mg/kg
# [5] = 12 wk PO QD, low: Compound 2 0.3 mg/kg
# [6] = 12 wk PO QD, med: Compound 2 2 mg/kg
smiles,measurement,setting,value
"N#Cc1nn(-c2cc(Cl)c(Oc3n[nH]c(=O)c4ccccc34)c(Cl)c2)c(=O)[nH]c1=O [Compound 2, 2-(3,5-dichloro-4-((4-oxo-3,4-dihydrophthalazin-1-yl)oxy)phenyl)-3,5-dioxo-2,3,4,5-tetrahydro-1,2,4-triazine-6-carbonitrile]",Mean trough analyte concentration (SD),"[1]; group Combo-high, Compound 3 10 mg/kg + Compound 2 10 mg/kg (14)",143.0 (87.9) ng/mL
same,Mean trough analyte concentration (SD),"[1]; group Combo-med, Compound 3 10 mg/kg + Compound 2 2 mg/kg (16)",49.5 (42.9) ng/mL
same,Mean trough analyte concentration (SD),[1]; group Compound 2-high 10 mg/kg (16),320.0 (189.9) ng/mL
same,Mean trough analyte concentration (SD),[1]; group Compound 2-med 2 mg/kg (15),135.5 (62.0) ng/mL
same,hepatomegaly (liver weight),DIO-GAN NASH mouse model; [2],significantly reduced hepatomegaly
same,spleen weight,DIO-GAN NASH mouse model; [2],without changes in spleen weight
same,total cholesterol (plasma),DIO-GAN NASH mouse model; [2],significantly reduced total cholesterol
same,ALT levels relative to DIO-GAN vehicle control,"DIO-GAN NASH mouse model; 12 wk PO QD, Compound 2 low, med, and high",significantly reduced; also recorded: significantly lowered ALT levels
same,plasma triglycerides,"DIO-GAN NASH mouse model; 12 wk PO QD, Compound 3 10 mg/kg, Compound 2-high 10 mg/kg, combinations",significantly reduced plasma triglycerides
same,"α-SMA (IHC), marker of hepatic stellate cell activation","DIO-GAN NASH mouse model; 12 wk PO QD, Compound 3, Compound 2-low and -med, Combo-low",Numeric reductions
same,Histological steatosis score: mice improving 1-pt,DIO-GAN NASH mouse model; [3],75%
same,Histological steatosis score: mice with no change,DIO-GAN NASH mouse model; [3],18.75%
same,Liver fibrosis stage: mice improving,DIO-GAN NASH mouse model; [3],6.25%
same,Liver fibrosis stage: mice with no change,DIO-GAN NASH mouse model; [3],68.75%
same,Liver fibrosis stage: mice worsening,DIO-GAN NASH mouse model; [3],25%
same,Lobular inflammation: mice improving,DIO-GAN NASH mouse model; [3],12.5%
same,Lobular inflammation: mice with no change,DIO-GAN NASH mouse model; [3],56.25%
same,Lobular inflammation: mice worsening,DIO-GAN NASH mouse model; [3],31.25%
same,NAS: mice improving 1-pt,DIO-GAN NASH mouse model; [3],37.5%
same,NAS: mice with no change,DIO-GAN NASH mouse model; [3],31.25%
same,NAS: mice worsening ≥1-pt,DIO-GAN NASH mouse model; [3],6.25%
same,Histological steatosis score: mice improving >2-pt,DIO-GAN NASH mouse model; [4],6.25%
same,"Histological steatosis score: mice improving, Total (at least 1-pt)",DIO-GAN NASH mouse model; [4],81% and 81.25%
same,NAS: mice improving ≥2-pt,DIO-GAN NASH mouse model; [4],25%
same,"NAS: mice improving, Total (≥1-pt)",DIO-GAN NASH mouse model; [4],62% and 62.5%
same,Histological steatosis score: mice improving 1-pt,DIO-GAN NASH mouse model; [5],25%
same,Histological steatosis score: mice improving >2-pt,DIO-GAN NASH mouse model; [5],6.25%
same,"Histological steatosis score: mice improving, Total (at least 1-pt)",DIO-GAN NASH mouse model; [5],31% and 31.25%
same,Histological steatosis score: mice with no change,DIO-GAN NASH mouse model; [5],68.75%
same,Liver fibrosis stage: mice improving,DIO-GAN NASH mouse model; [5],6.25%
same,Liver fibrosis stage: mice with no change,DIO-GAN NASH mouse model; [5],62.5%
same,Liver fibrosis stage: mice worsening,DIO-GAN NASH mouse model; [5],31.25%
same,Lobular inflammation: mice improving,DIO-GAN NASH mouse model; [5],6.25%
same,Lobular inflammation: mice with no change,DIO-GAN NASH mouse model; [5],68.75%
same,Lobular inflammation: mice worsening,DIO-GAN NASH mouse model; [5],25%
same,NAS: mice improving 1-pt,DIO-GAN NASH mouse model; [5],31.25%
same,NAS: mice improving ≥2-pt,DIO-GAN NASH mouse model; [5],0%
same,"NAS: mice improving, Total (≥1-pt)",DIO-GAN NASH mouse model; [5],31% and 31.25%
same,NAS: mice with no change,DIO-GAN NASH mouse model; [5],56.25%
same,NAS: mice worsening ≥1-pt,DIO-GAN NASH mouse model; [5],12.5%
same,Histological steatosis score: mice improving 1-pt,DIO-GAN NASH mouse model; [6],40%
same,Histological steatosis score: mice improving >2-pt,DIO-GAN NASH mouse model; [6],6.7%
same,"Histological steatosis score: mice improving, Total (at least 1-pt)",DIO-GAN NASH mouse model; [6],47% and 46.7%
same,Histological steatosis score: mice with no change,DIO-GAN NASH mouse model; [6],53.33%
same,Liver fibrosis stage: mice improving,DIO-GAN NASH mouse model; [6],13.33%
same,Liver fibrosis stage: mice with no change,DIO-GAN NASH mouse model; [6],60%
same,Liver fibrosis stage: mice worsening,DIO-GAN NASH mouse model; [6],26.7%
same,Lobular inflammation: mice improving,DIO-GAN NASH mouse model; [6],6.7%
same,Lobular inflammation: mice with no change,DIO-GAN NASH mouse model; [6],73.3%
same,Lobular inflammation: mice worsening,DIO-GAN NASH mouse model; [6],20%
same,NAS: mice improving 1-pt,DIO-GAN NASH mouse model; [6],20%
same,NAS: mice improving ≥2-pt,DIO-GAN NASH mouse model; [6],7% and 6.7%
same,"NAS: mice improving, Total (≥1-pt)",DIO-GAN NASH mouse model; [6],27% and 26.7%
same,NAS: mice with no change,DIO-GAN NASH mouse model; [6],73.33%
same,NAS: mice worsening ≥1-pt,DIO-GAN NASH mouse model; [6],0%
same,number of DEGs vs DIO-GAN vehicle control,"DIO-GAN NASH mouse model; liver RNAseq, Compound 2-low (0.3 mg/kg)",987
